Test results: ChEMBL document CHEMBL5385856, “Novel 1,4,5,6-tetrahydrocyclopenta[d]imidazole-5-carboxamide-based JNK3 inhibitors: Design, synthesis, molecular docking, and therapeutic potential in neurodegenerative diseases” (Eur J Med Chem, 2023)
pIC50: −log10 of the molar value. The source made the active and inactive calls. No cut-off for these calls is given here.

Tests used:
[1] = biological target: T1, Mitogen-activated protein kinase 10 (Homo sapiens, UniProt P53779); assay: Inhibition of JNK3 (unknown origin) using ATF2 as substrate incubated for 40 mins in presence of [gamma33P]ATP by scintillation counting analysis
[2] = biological target: T2, Mitogen-activated protein kinase 8 (Homo sapiens, UniProt P45983); assay: Inhibition of JNK1 (unknown origin) incubated for 20 mins in presence of 33P-ATP
Cortical neurone = assay: cells; details: Rattus norvegicus, 120 h, read-out: Activity
[3] = biological target: Glycogen synthase kinase-3 beta (Homo sapiens, UniProt P49841); assay: Inhibition of GSK3beta (unknown origin) incubated for 20 mins in presence of 33P-ATP
[4] = biological target: T3, Mitogen-activated protein kinase 9 (Homo sapiens, UniProt P45984); assay: Inhibition of JNK2 (unknown origin) at 1 uM relative to control
Target sequence in this assay (P45984 whole entry, looked up): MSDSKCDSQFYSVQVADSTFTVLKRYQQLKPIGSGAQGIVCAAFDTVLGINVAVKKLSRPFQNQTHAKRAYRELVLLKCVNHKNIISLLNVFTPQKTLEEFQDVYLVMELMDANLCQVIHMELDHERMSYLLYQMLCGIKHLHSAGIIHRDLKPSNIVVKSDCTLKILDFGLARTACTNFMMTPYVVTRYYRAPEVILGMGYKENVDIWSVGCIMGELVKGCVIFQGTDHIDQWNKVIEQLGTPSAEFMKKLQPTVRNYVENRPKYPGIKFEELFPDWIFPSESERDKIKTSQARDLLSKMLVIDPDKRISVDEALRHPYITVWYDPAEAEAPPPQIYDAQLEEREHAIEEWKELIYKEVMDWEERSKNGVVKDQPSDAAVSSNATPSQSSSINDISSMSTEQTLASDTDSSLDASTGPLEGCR

[5] = biological target: Mitogen-activated protein kinase 10 (Rattus norvegicus) (UniProt P49187); assay: Inhibition of JNK3 in primary rat cortex neuron cells assessed as reduction in Abeta1-42 induced APP phosphorylation by Western blotting analysis; format: cell-based; details: Primary cortical neuron
[6] = biological target: T1, Mitogen-activated protein kinase 10; assay: Inhibition of JNK3 (unknown origin) at 1 uM relative to control
[7] = biological target: Mitogen-activated protein kinase 10 (Rattus norvegicus) (UniProt P49187); assay: Inhibition of JNK3 in primary rat cortex neuron cells assessed as reduction in Abeta1-42 induced c-Jun phosphorylation by Western blotting analysis; format: cell-based; details: Primary cortical neuron
[8] = biological target: T3, Mitogen-activated protein kinase 9; assay: Inhibition of JNK2 (unknown origin) incubated for 20 mins in presence of 33P-ATP
Target sequence in this assay (P45984 whole entry): as the sequence (P45984 whole entry, looked up) above

[9] = biological target: T4, Mitogen-activated protein kinase 14 (Homo sapiens, UniProt Q16539); assay: Inhibition of p38alpha (unknown origin) at 1 uM relative to control
[10] = biological target: T2, Mitogen-activated protein kinase 8; assay: Inhibition of JNK1 (unknown origin) at 1 uM relative to control
[11] = biological target: T4, Mitogen-activated protein kinase 14; assay: Inhibition of p38alpha (unknown origin) incubated for 20 mins in presence of 33P-ATP
[12] = Selectivity ratio of IC50 for inhibition of JNK1 (unknown origin) to IC50 for inhibition of JNK3 (unknown origin)
[13] = Selectivity ratio of IC50 for inhibition of p38alpha (unknown origin) to IC50 for inhibition of JNK3 (unknown origin)
[14] = Selectivity ratio of IC50 for inhibition of GSK3beta (unknown origin) to IC50 for inhibition of JNK3 (unknown origin)

Chain of Mitogen-activated protein kinase 10 (Rattus norvegicus) (P49187 whole entry): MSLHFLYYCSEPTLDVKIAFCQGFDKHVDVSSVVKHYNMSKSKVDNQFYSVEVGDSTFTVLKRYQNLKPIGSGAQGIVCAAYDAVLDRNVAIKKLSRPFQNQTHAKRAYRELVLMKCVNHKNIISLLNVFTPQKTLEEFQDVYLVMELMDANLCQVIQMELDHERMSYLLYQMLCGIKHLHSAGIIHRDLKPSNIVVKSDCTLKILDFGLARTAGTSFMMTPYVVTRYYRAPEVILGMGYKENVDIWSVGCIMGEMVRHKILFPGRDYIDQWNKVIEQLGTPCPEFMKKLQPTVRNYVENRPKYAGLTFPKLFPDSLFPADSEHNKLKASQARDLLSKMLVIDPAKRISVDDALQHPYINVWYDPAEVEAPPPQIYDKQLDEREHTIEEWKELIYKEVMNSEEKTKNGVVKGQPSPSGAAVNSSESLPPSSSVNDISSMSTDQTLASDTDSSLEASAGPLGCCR
T2 sequence (P45983 whole entry): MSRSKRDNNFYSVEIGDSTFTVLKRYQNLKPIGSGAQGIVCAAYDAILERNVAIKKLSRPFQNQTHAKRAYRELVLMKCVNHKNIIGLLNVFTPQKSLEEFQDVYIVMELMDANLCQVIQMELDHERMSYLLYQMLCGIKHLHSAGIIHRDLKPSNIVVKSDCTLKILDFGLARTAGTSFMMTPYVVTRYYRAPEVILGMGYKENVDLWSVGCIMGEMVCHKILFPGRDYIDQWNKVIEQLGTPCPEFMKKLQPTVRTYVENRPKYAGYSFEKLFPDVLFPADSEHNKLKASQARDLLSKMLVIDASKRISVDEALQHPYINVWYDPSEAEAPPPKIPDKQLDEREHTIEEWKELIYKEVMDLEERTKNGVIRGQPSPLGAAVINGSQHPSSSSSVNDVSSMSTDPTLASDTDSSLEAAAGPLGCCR
T1 sequence (P53779 whole entry): as the sequence (P49187 whole entry) above, with H27Q, S32Y, V33I, V34A counted along it
T4 sequence (Q16539 whole entry): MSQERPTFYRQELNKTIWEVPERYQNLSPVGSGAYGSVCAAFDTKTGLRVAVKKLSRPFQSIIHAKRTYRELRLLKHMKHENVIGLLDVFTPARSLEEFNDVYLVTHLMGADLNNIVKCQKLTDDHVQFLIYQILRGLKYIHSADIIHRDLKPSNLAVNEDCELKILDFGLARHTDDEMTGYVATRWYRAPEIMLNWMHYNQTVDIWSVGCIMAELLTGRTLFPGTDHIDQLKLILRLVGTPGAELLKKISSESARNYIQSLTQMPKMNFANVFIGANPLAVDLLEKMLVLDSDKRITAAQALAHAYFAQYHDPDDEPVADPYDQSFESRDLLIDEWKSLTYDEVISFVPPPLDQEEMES
Chain of Glycogen synthase kinase-3 beta (P49841 whole entry): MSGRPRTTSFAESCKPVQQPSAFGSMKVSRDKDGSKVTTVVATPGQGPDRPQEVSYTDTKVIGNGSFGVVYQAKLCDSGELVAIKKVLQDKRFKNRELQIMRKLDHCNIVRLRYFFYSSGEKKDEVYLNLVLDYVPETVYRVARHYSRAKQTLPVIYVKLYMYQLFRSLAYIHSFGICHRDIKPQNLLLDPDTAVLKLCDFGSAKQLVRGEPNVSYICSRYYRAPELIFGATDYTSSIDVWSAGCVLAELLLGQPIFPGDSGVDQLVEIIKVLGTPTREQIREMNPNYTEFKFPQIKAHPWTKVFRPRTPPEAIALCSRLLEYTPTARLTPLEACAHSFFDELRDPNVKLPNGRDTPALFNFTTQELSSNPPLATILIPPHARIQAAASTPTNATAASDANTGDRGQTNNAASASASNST

SMILES	pIC50 [1]	also measured
CCOC(=O)C1Cc2nc(-c3ccc(F)c(C(F)(F)F)c3)n(-c3ccnc(N[C@@H]4CCN(C(=O)C5CC5)C4)n3)c2C1 (some centres not stated)	7.20	–
NC(=O)C1Cc2nc(-c3ccc(F)c(C(F)(F)F)c3)n(-c3ccnc(N[C@H]4CCCN(C(=O)C5CC5)C4)n3)c2C1 (some centres not stated)	8.19	–
NC(=O)C1Cc2nc(-c3ccc(F)c(C(F)(F)F)c3)n(-c3ccnc(N[C@@H]4CCN(C(=O)C5CC5)C4)n3)c2C1 (some centres not stated)	6.52	–
CCOC(=O)C1Cc2nc(-c3ccc4c(c3)OCO4)n(-c3ccnc(N[C@H]4CCN(C(=O)C5CC5)C4)n3)c2C1 (some centres not stated)	6.61	–
NC(=O)C1Cc2nc(-c3ccc4c(c3)CCO4)n(-c3ccnc(N[C@H]4CCN(C(=O)C5CC5)C4)n3)c2C1 (some centres not stated)	7.06	–
CNC(=O)C1Cc2nc(-c3ccc(F)c(C(F)(F)F)c3)n(-c3ccnc(N[C@@H]4CCN(C(=O)C5CC5)C4)n3)c2C1 (some centres not stated)	6.52	–
CNC(=O)C1Cc2nc(-c3ccc(Cl)c(Cl)c3)n(-c3ccnc(N[C@H]4CCN(C(=O)C5CC5)C4)n3)c2C1 (some centres not stated)	7.99	–
CNC(=O)C1Cc2nc(-c3ccc(Cl)c(Cl)c3)n(-c3ccnc(N[C@@H]4CCN(C(=O)C5CC5)C4)n3)c2C1 (some centres not stated)	8.03	–
NC(=O)C1Cc2nc(-c3ccc(Cl)c(Cl)c3)n(-c3ccnc(N[C@H]4CCCN(C(=O)C5CC5)C4)n3)c2C1 (some centres not stated)	9.42	pIC50 [2]: 7.08; viability at 10 µM (Cortical neurone): 62.9%; pIC50 [3]: 5.41; inhibition [4]: 80%; inhibition [5]: Active; inhibition [6]: 100%; inhibition [7]: Active; pIC50 [8]: 7.53; inhibition [9]: 80%; inhibition [10]: 80%; pIC50 [11]: 6.67
NC(=O)C1Cc2nc(-c3ccc(Cl)c(Cl)c3)n(-c3ccnc(N[C@@H]4CCN(C(=O)C5CC5)C4)n3)c2C1 (some centres not stated)	7.79	–
NC(=O)C1Cc2nc(-c3ccc4c(c3)OCO4)n(-c3ccnc(N[C@@H]4CCN(C(=O)C5CC5)C4)n3)c2C1 (some centres not stated)	6.99	–
NC(=O)C1Cc2nc(-c3ccc4c(c3)OCO4)n(-c3ccnc(N[C@H]4CCN(C(=O)C5CC5)C4)n3)c2C1 (some centres not stated)	6.87	–
CCOC(=O)C1Cc2nc(-c3ccc4ccccc4c3)n(-c3ccnc(N[C@H]4CCN(C(=O)C5CC5)C4)n3)c2C1 (some centres not stated)	7.63	–
NC(=O)C1Cc2nc(-c3ccc4ccccc4c3)n(-c3ccnc(N[C@H]4CCCN(C(=O)C5CC5)C4)n3)c2C1 (some centres not stated)	8.75	viability at 10 µM (Cortical neurone): 58.5%; inhibition [5]: Active; inhibition [7]: Active
CCOC(=O)C1Cc2nc(-c3ccc4c(c3)CCO4)n(-c3ccnc(N[C@H]4CCN(C(=O)C5CC5)C4)n3)c2C1 (some centres not stated)	6.80	–
CNC(=O)C1Cc2nc(-c3ccc4ccccc4c3)n(-c3ccnc(N[C@H]4CCCN(C(=O)C5CC5)C4)n3)c2C1 (some centres not stated)	9.25	pIC50 [2]: 7.84; pIC50 [3]: 5.74; inhibition [4]: 80%; Ratio IC50 [12]: > 100; inhibition [6]: 100%; Ratio IC50 [13]: > 100; pIC50 [8]: 8.12; Ratio IC50 [14]: > 100; inhibition [9]: 80%; inhibition [10]: 80%; pIC50 [11]: 6.12
CCOC(=O)C1Cc2nc(-c3ccc(Cl)c(Cl)c3)n(-c3ccnc(N[C@H]4CCN(C(=O)C5CC5)C4)n3)c2C1 (some centres not stated)	7.55	–
NC(=O)C1Cc2nc(-c3ccc4c(c3)CCO4)n(-c3ccnc(N[C@@H]4CCCN(C(=O)C5CC5)C4)n3)c2C1 (some centres not stated)	8.05	–
CNC(=O)C1Cc2nc(-c3ccc(F)c(C(F)(F)F)c3)n(-c3ccnc(N[C@H]4CCCN(C(=O)C5CC5)C4)n3)c2C1 (some centres not stated)	7.51	–
CCOC(=O)C1Cc2nc(-c3ccc(F)c(C(F)(F)F)c3)n(-c3ccnc(N[C@@H]4CCCN(C(=O)C5CC5)C4)n3)c2C1 (some centres not stated)	7.18	–
CCOC(=O)C1Cc2nc(-c3ccc(Cl)c(Cl)c3)n(-c3ccnc(N[C@@H]4CCN(C(=O)C5CC5)C4)n3)c2C1 (some centres not stated)	8.36	–
NC(=O)C1Cc2nc(-c3ccc4c(c3)OCO4)n(-c3ccnc(N[C@H]4CCCN(C(=O)C5CC5)C4)n3)c2C1 (some centres not stated)	8.00	viability at 10 µM (Cortical neurone): 55.1%
CCOC(=O)C1Cc2nc(-c3ccc4c(c3)OCO4)n(-c3ccnc(N[C@H]4CCCN(C(=O)C5CC5)C4)n3)c2C1 (some centres not stated)	7.98	–
CCOC(=O)C1Cc2nc(-c3ccc(F)c(C(F)(F)F)c3)n(-c3ccnc(N[C@H]4CCCN(C(=O)C5CC5)C4)n3)c2C1 (some centres not stated)	7.28	–
CCOC(=O)C1Cc2nc(-c3ccc4c(c3)CCO4)n(-c3ccnc(N[C@@H]4CCCN(C(=O)C5CC5)C4)n3)c2C1 (some centres not stated)	7.98	–
NC(=O)C1Cc2nc(-c3ccc(F)c(C(F)(F)F)c3)n(-c3ccnc(N[C@H]4CCN(C(=O)C5CC5)C4)n3)c2C1 (some centres not stated)	6.74	–
